Test results as given in US20120122991A1, “METHOD FOR TREATING CANCER BY INCREASING AMP-ACTIVATED KINASE ACTIVITY” (Dana-Farber Cancer Institute, Inc., priority 2003, published 2012).

Columns and labels:
HeLa cells = assay: Cell survival (MTT assay, phase contrast) of HeLa cells stably expressing vector, WT or KD LKB1; assay type: cell-based, human; conditions: 2.5 mM AICAR, within 8 h
Procedure: Results are representative of four independent experiments. Cell viability was determined following AICAR or UV expressed as a percentage of untreated controls. Cell viability quantified by MTT assays run in triplicate on indicated HeLa stable cell lines treated with 2.5 mM AICAR or 50 j/cm^2 UV for 8 h. Results are representative of two independent experiments.
Kinase Assays and Cellular Analysis: AMPK kinase activity was measured using the SAMS peptide as previously described (7). LKB1 phosphorylation of AMPK was carried out in kinase buffer (50 mM Tris pH 7.5, 10 mM MgCl2, 1 mM DTT, 100 μM ATP) for 20 mins at 30° C. For immunopreciptations of active LKB1 kinase, Flag-tagged LKB1 was co-transfected with an equimolar amount of STRAD expression plasmid into HT1080 cells and immunoprecipitated using M2-agarose (Sigma) 24 h post-transfection in NP40 lysis buffer26. Before kinase assays, immunoprecipitated LKB1 was washed 3× in lysis buffer then 2× in kinase buffer. Soluble MBP-AMPK was added at 5 μg per kinase reaction. […]
To determine if LKB1 can mediate a biological response to a stimulus that activates the AMPKK/AMPK cascade we investigated whether LKB1 might modulate cell death under circumstances where AMPK would be activated. […] The extent of cell survival conferred by LKB1 reconstitution in the HeLa cells was quantified by MTT assay (FIG. 5b,c).

tuberin = assay: Tuberin mobility shift on SDS-PAGE in transfected HeLa cells; assay type: cell-based, human
Description: FIG. 7A: In vitro kinase assay using FLAG-tagged tuberin as a substrate for LKB1-activated AMPK. Purified E. coli produced recombinant AMPK was activated by an in vitro kinase assay with wild-type LKB1, kinase-dead LKB1, or untransfected control immunoprecipitates then isolated and assayed for its ability to phosphorylate tuberin in vitro. FIG. 7B: Comparison of recombinant Akt-mediated tuberin phosphorylation in vitro to recombinant AMPK phosphorylation in vitro. Note that only AMPK-mediated phosphorylation induces a significant mobility shift in tuberin on SDS-PAGE. C: HeLa cells were co-transfected with FLAG-tagged tuberin, and empty vector or wild-type LKB1 and treated with 2 mM AICAR where indicated. Total cell lysates were then immunoblotted with anti-FLAG antisera to detect the introduced tuberin. Note the significant mobility shift induced by AICAR treatment of LKB1-expressing cells. […] FIG. 7D: HeLa cells were transfected with HA-tagged S6K1 and FLAG-tagged wild-type LKB1 along with empty vector, or dominant negative AMPK alpha1 (GST-tagged) or dominant negative AMPK alpha2 (myc tagged). Cells were treated with 2 mM AICAR for 2 h where indicated. HA-immunoprecipitates were immunoblotted with phospho-Thr389 S6K1 antisera to detect activated S6K1 and reprobed for total HA-S6K1 levels. […]

quiescent cells = conditions: cited from earlier work

## NC(=O)c1ncn([C@@H]2O[C@H](CO)[C@@H](O)[C@H]2O)c1N [AICAR, 5-aminoimidazole-4-carboxamide 1-β-D-ribofuranoside]
HeLa cells; vector control and kinase-dead LKB1 expressing HeLa cells
  cell death: extensive cell death
HeLa cells; wild-type LKB1 expressing HeLa cells
  cell viability: nearly totally viable
tuberin; HeLa cells expressing wild-type LKB1, 2 mM AICAR
  tuberin mobility on SDS-PAGE: significant reduction in tuberin mobility
tuberin; HeLa cells in the absence of LKB1 expression, AICAR
  tuberin mobility on SDS-PAGE: no effect on tuberin mobility
Quiescent cells
  glucocorticoid induced apoptosis: protects them from glucocorticoid induced apoptosis
